For test [1], the target named is T1, HIV-1 protease (Human immunodeficiency virus type 1 group M subtype B, UniProt P04585). The test can be described thus: biochemical. Conditions: read-out: HIV-1 FITC KI. The procedure, abridged:
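Ki from two-fold serial inhibitor dilutions (24–48 concentrations) with 40 nM HIV-1 protease stock and 200 μM substrate stock, 90 min at room temperature; stopped with avidin beads. Reference inhibitor run in parallel; Ki by nonlinear least-squares fit.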

The target in test [2] is T1, HIV-1 protease. The test can be described thus: biochemical. The following applies: for inhibition at 0.123 µM: read-out: HIV-1 Protease % Inhib, dose 0.123 uM; for inhibition at 30 µM: read-out: HIV-1 Protease % Inhib, dose 30.000 uM; for inhibition at 0.37 µM: read-out: HIV-1 Protease % Inhib, dose 0.370 uM; for inhibition at 1.1 µM: read-out: HIV-1 Protease % Inhib, dose 1.100 uM; for inhibition at 3.3 µM: read-out: HIV-1 Protease % Inhib, dose 3.300 uM; for inhibition at 10 µM: read-out: HIV-1 Protease % Inhib, dose 10.000 uM. The essentials: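 Biotinylated, FITC-labeled peptide substrate (20 μl of 0.2 μM) incubated with HIV-1 protease (10 μl of 0.1 μM) and compound in 0.1 M sodium acetate pH 5.5, 1.0 M NaCl, 0.05% NP-40, 1 h, room temperature, dark. Streptavidin beads then capture uncleaved substrate; filtered labeled product read by fluorescence, giving percent inhibition.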

Where “and” joins values, the source holds several entries; their conditions need not be identical. Equal values may be shown once. Where a name gives a salt, the structure may show the parent alone.

A word on the Ki: it is a dissociation constant, usually derived from enzyme kinetics or from competition with a known ligand. With `CCCC(c1cccc(NS(=O)(=O)c2ccc(Cl)cc2)c1)c1c(O)c2c(oc1=O)CCCCCC2` (stereo not shown) [Example 377, Benzenesulfonamide, 4-chloro-N-[3-[1-(5,6,7,8,9,10-hexahydro-4-hydroxy-2-oxo-2H-cycloocta[b]pyran-3-yl)butyl]phenyl]-], at HIV-1 protease [1], the inhibitory constant (Ki) was 4 nM. Besides, the “HIV-1 Protease % Inhib” value is 66.07% and 114.03% at HIV-1 protease [2] (dose 3.300 uM); 83.74% and 107.37% on HIV-1 protease [2] (dose 10.000 uM); 101.29% on HIV-1 protease [2] (dose 30.000 uM). The inhibition at 0.123 µM on HIV-1 protease [2] stood at 92.9%. The inhibition at 30 µM on HIV-1 protease [2] came out at 94.7%.

For the molecule `CCCC(c1cccc(NS(=O)(=O)c2ccc(C#N)cc2)c1)c1c(O)c2c(oc1=O)CCCCCC2` (stereo not shown) [Example 378, Benzenesulfonamide, 4-cyano-N-[3-[1-(5,6,7,8,9,10-hexahydro-4-hydroxy-2-oxo-2H-cycloocta[b]pyran-3-yl)butyl]phenyl]-], the Ki on HIV-1 protease [1] stood at 1.06 nM. At HIV-1 protease [2], the inhibition at 0.123 µM turned out to be 103%, the inhibition at 0.37 µM is 111%, the inhibition at 1.1 µM amounted to 112% and the inhibition at 3.3 µM was 118%. For the same molecule, on HIV-1 protease [2], the inhibition at 10 µM was 112% and the inhibition at 30 µM is 112%.

Turning to `O=c1oc2c(c(O)c1C(c1cccs1)C1CC1)CCCCCC2` (stereo not drawn) [Example 379, 3-(α-Cyclopropylthien-2-ylmethyl)-4-hydroxy-5,6,7,8,9,10-hexahydrocycloocta[b]pyran-2-one], the inhibitory constant (Ki) at HIV-1 protease [1] came to 18.3 nM. In addition, at HIV-1 protease [2], the inhibition at 0.37 µM was 48.6%, the inhibition at 1.1 µM is 84.5%, the inhibition at 3.3 µM stood at 96.2% and the inhibition at 10 µM amounted to 107%. Moreover, the inhibition at 30 µM on HIV-1 protease [2] worked out at 113%.

On to `CCC(c1cccs1)c1c(O)c2c(oc1=O)CCCCCC2` (stereo not drawn) [Example 380, 3-(α-Ethylthien-2-ylmethyl)4-hydroxy-5,6,7,8,9,10-hexahydrocycloocta[b]pyran-2-one], for which, at HIV-1 protease [1], the Ki is 87.9 nM. Also, at HIV-1 protease [2], the inhibition at 0.37 µM was 21.5%, the inhibition at 1.1 µM worked out at 57.2%, the inhibition at 3.3 µM came out at 82.5% and the inhibition at 10 µM came out at 103%. Moreover, the inhibition at 30 µM at HIV-1 protease [2] stood at 108%.

Take `CCC(c1ccc(C)s1)c1c(O)c2c(oc1=O)CCCCCC2` (stereo not shown) [Example 381]: the inhibitory constant (Ki) at HIV-1 protease [1] amounted to 39.1 nM. Further, on HIV-1 protease [2], the inhibition at 0.37 µM stood at 24.1%, the inhibition at 1.1 µM was 62.3%, the inhibition at 3.3 µM came to 80.4% and the inhibition at 10 µM was 99.8%. Also, the inhibition at 30 µM on HIV-1 protease [2] was determined as 96.7%.

As for `O=c1oc2c(c(O)c1C(c1ccc(CO)s1)C1CC1)CCCCCC2` (stereo not shown) [Example 384], at HIV-1 protease [1], the Ki was 24.1 nM. Moreover, on HIV-1 protease [2], the inhibition at 0.123 µM came to 12.2%, the inhibition at 0.37 µM was 47.4%, the inhibition at 1.1 µM is 79.2% and the inhibition at 3.3 µM was found to be 92.9%. At HIV-1 protease [2], the inhibition at 10 µM stood at 103% and the inhibition at 30 µM stood at 102%.

With `O=c1oc2c(c(O)c1C(c1ccc(CCO)s1)C1CC1)CCCCCC2` (stereo not shown) [Example 385], on HIV-1 protease [1], the Ki turned out to be 12.4 nM. Also, at HIV-1 protease [2], the inhibition at 0.37 µM stood at 48.5%, the inhibition at 1.1 µM was determined as 89.5%, the inhibition at 3.3 µM was 104% and the inhibition at 10 µM is 107%. Moreover, the inhibition at 30 µM on HIV-1 protease [2] turned out to be 107%.

In the case of `O=C(NCc1ccc(C(c2c(O)c3c(oc2=O)CCCCCC3)C2CC2)o1)OCc1ccccc1` (stereo not drawn) [Example 388, 3-(α-Cyclopropyl (5-(N-carbobenzoxy)aminomethyl)furfur-2-yl)-4-hydroxy-5,6,7,8,9,10-hexahydrocycloocta[b]pyran-2-one], the inhibition constant Ki on HIV-1 protease [1] is 21.7 nM. Besides, at HIV-1 protease [2], the inhibition at 0.37 µM was 42.8%, the inhibition at 1.1 µM was 76%, the inhibition at 3.3 µM turned out to be 96.5% and the inhibition at 10 µM was 98.2%. Besides, at HIV-1 protease [2], the inhibition at 30 µM was 93.7%.

`O=C(NCc1ccc(C(c2c(O)c3c(oc2=O)CCCCCC3)C2CC2)s1)OCc1ccccc1` (stereo not drawn) [Example 389, 3-(α-Cyclopropyl (5-(N-carbobenzoxy)aminomethyl)thien-2-ylmethyl)-4-hydroxy-5,6,7,8,9,10-hexahydrocycloocta[b]pyran-2-one]: the inhibitory constant (Ki) on HIV-1 protease [1] stood at 46.2 nM. Also, on HIV-1 protease [2], the inhibition at 0.37 µM came out at 21.1%, the inhibition at 1.1 µM stood at 58%, the inhibition at 3.3 µM amounted to 78.7% and the inhibition at 10 µM was found to be 96.4%. The inhibition at 30 µM on HIV-1 protease [2] stood at 98.7%.

Turning to `Cc1sc(C(c2c(O)c3c(oc2=O)CCCCCC3)C2CC2)cc1CO` (stereo not shown) [Example 394], at HIV-1 protease [1], the inhibition constant Ki is 6.04 nM. On HIV-1 protease [2], the inhibition at 0.123 µM turned out to be 72.7%, the inhibition at 0.37 µM was determined as 102%, the inhibition at 1.1 µM worked out at 109% and the inhibition at 3.3 µM was 115%. For the same molecule, at HIV-1 protease [2], the inhibition at 10 µM came out at 120% and the inhibition at 30 µM is 123%.

On to `O=c1oc2c(c(O)c1C(c1cccc(NS(=O)(=O)Nc3ccccc3)c1)C1CC1)CCCCCC2` (stereo not shown) [Example 397], for which, on HIV-1 protease [1], the Ki stood at 7.3 nM. Besides, on HIV-1 protease [2], the inhibition at 0.123 µM came out at 35.7%, the inhibition at 0.37 µM came out at 92.9%, the inhibition at 1.1 µM is 105% and the inhibition at 3.3 µM amounted to 109%. Moreover, on HIV-1 protease [2], the inhibition at 10 µM is 116% and the inhibition at 30 µM was determined as 113%.

As to `CN(C)S(=O)(=O)Nc1cccc(C(c2c(O)c3c(oc2=O)CCCCCC3)C2CC2)c1` (stereo not shown) [Example 398, N'-[3-[cyclopropyl(5,6,7,8,9,10-hexahydro4-hydroxy-2-oxo-2H-cycloocta[b]pyran-3-yl)methyl]phenyl]-N,N-dimethyl-sulfamide], the Ki on HIV-1 protease [1] was 41.5 nM. In addition, on HIV-1 protease [2], the inhibition at 0.123 µM was 10.5%, the inhibition at 0.37 µM stood at 40.9%, the inhibition at 1.1 µM worked out at 74.2% and the inhibition at 3.3 µM worked out at 91.5%. For the same molecule, at HIV-1 protease [2], the inhibition at 10 µM turned out to be 105% and the inhibition at 30 µM is 105%.

Regarding `CN1CCN(S(=O)(=O)Nc2cccc(C(c3c(O)c4c(oc3=O)CCCCCC4)C3CC3)c2)CC1` (stereo not shown) [Example 399, N-[3-[Cyclopropyl(5,6,7,8,9,10-hexahydro-4-hydroxy-2-oxo-2H-cycloocta[b]pyran-3-yl)methyl]phenyl]4-methyl-1-piperazinesulfonamide], the inhibition constant (Ki) at HIV-1 protease [1] came out at 186 nM. On HIV-1 protease [2], the inhibition at 0.37 µM came out at 21.6% and the inhibition at 1.1 µM was 54.1%.

As for `O=c1oc2c(c(O)c1C(c1cccc(S(=O)(=O)Nc3ccccc3)c1)C1CC1)CCCCCC2` (stereo not shown) [Example 400, N-Phenyl-3-[cyclopropyl(5,6,7,8,9, 10-hexahydro-4-hydroxy-2-oxo-2H-cycloocta[b]pyran-3-yl)methyl]-benzenesulfonamide], the Ki on HIV-1 protease [1] came out at 35.8 nM. In addition, on HIV-1 protease [2], the inhibition at 0.123 µM amounted to 17.4%, the inhibition at 0.37 µM worked out at 54.8%, the inhibition at 1.1 µM was determined as 78.7% and the inhibition at 3.3 µM worked out at 94.7%. Moreover, at HIV-1 protease [2], the inhibition at 10 µM is 114% and the inhibition at 30 µM was 109%.

`N#Cc1ccc(S(=O)(=O)Nc2cccc(C(c3c(O)c4c(oc3=O)CCCCCC4)C3CC3)c2)cc1` (stereo not shown) [Example 402, Sodium Salt of 4-Cyano-N-[3-[cyclopropyl(5,6,7,8,9,10-hexahydro4-hydroxy-2-oxo-2H-cycloocta[b]pyran-3-yl)methyl]phenyl]-benzenesulfonamide]: at HIV-1 protease [1], the Ki stood at 0.62 nM. The “HIV-1 Protease % Inhib” value at HIV-1 protease [2] (dose 0.123 uM) amounted to 103.69%; at HIV-1 protease [2] (dose 0.370 uM), 106.4%; on HIV-1 protease [2] (dose 1.100 uM) it was 110.07%; on HIV-1 protease [2] (dose 3.300 uM) it was 100.22%; at HIV-1 protease [2] (dose 10.000 uM), 98.03%; at HIV-1 protease [2] (dose 30.000 uM), 98.47%.

As to `O=c1oc2c(c(O)c1C(c1cccc(NS(=O)(=O)c3ccc(CBr)cc3)c1)C1CC1)CCCCCC2` (stereo not shown) [Example 403, 4-(Bromomethyl)-N-[3-[cyclopropyl(5,6,7,8,9,10-hexahydro-4-hydroxy-2-oxo-2H-cycloocta[b]pyran-3-yl)methyl]phenyl]-benzenesulfonamide], at HIV-1 protease [1], the inhibition constant (Ki) worked out at 5 nM. Further, at HIV-1 protease [2], the inhibition at 0.123 µM stood at 41.6%, the inhibition at 0.37 µM worked out at 77.5%, the inhibition at 1.1 µM is 92.9% and the inhibition at 3.3 µM is 94.8%. Also, on HIV-1 protease [2], the inhibition at 10 µM amounted to 95.6% and the inhibition at 30 µM was 97%.

For `O=c1oc2c(c(O)c1[C@H](c1cccc(NS(=O)(=O)c3ccc(S(=O)(=O)c4ccccc4)s3)c1)C1CC1)CCCCCC2` [Example 404], the inhibitory constant (Ki) on HIV-1 protease [1] was 2.87 nM. For the same molecule, on HIV-1 protease [2], the inhibition at 0.123 µM was determined as 58.3%, the inhibition at 0.37 µM was 85.3%, the inhibition at 1.1 µM was 103% and the inhibition at 3.3 µM came out at 108%. In addition, at HIV-1 protease [2], the inhibition at 10 µM was determined as 106% and the inhibition at 30 µM stood at 103%.

`O=c1oc2c(c(O)c1C(c1cccc(NS(=O)(=O)c3cccc(O)c3)c1)C1CC1)CCCCCC2` (stereo not shown) [Example 405, N-[3-[Cyclopropyl(5,6,7,8,9,10-hexahydro-4-hydroxy-2-oxo-2H-cycloocta[b]pyran-3-yl)methyl]phenyl]-3-hydroxy-benzenesulfonamide]: the Ki at HIV-1 protease [1] was 3.13 nM. Moreover, on HIV-1 protease [2], the inhibition at 0.123 µM was found to be 46.5%, the inhibition at 0.37 µM came to 88.6%, the inhibition at 1.1 µM is 101% and the inhibition at 3.3 µM turned out to be 106%. In addition, at HIV-1 protease [2], the inhibition at 10 µM came out at 101% and the inhibition at 30 µM stood at 77.2%.

The record behind these values is patent US5686486A, “4-hydroxy-benzopyran-2-ones and 4-hydroxy-cycloalkyl[b]pyran-2-ones useful to treat retroviral infections” (priority 1995, dated 1997).
